The record followed here is patent US20200123271A1, “COMPOSITION FOR ENHANCING SENSITIVITY OF PROSTATE CANCER TO ANTICANCER DRUG AND USE THEREOF” (KOREA INSTITUTE OF SCIENCE AND TECHNOLOGY, priority 2018, published 2020).

Common to all, as to format: cell-based
For one series, the system named is pgp. Description: Expression of Pgp (pgp-glo assay, ATP level by luminescence). The method, then:
NCI-H660 and LNCaP cells were seeded on white transparent bottom 96-well plates at a density of 10^4 cells/well. After 24 hours, the cells were treated with CRISPR ERG, crisprTMPRSS2-ERG, and 30 μM casodex, respectively, for 48 hours. 20 μL of a pgp-glo assay buffer (Promega, USA) was added to all wells except for Na3VO4 condition. 20 μL of 0.25 mM Na3VO4 was added to the Na3VO4 condition. Reaction was initiated by adding 10 μL of 25 mM MgATP. The plates were mixed for a while and then incubated at 37° C. for 40 minutes. The 40 μL of an ATP detection reagent was added to all wells. Then, the plates were incubated at room temperature for 20 minutes and luminescence was measured.

The subject of series [1] is alpha tubulin, beta3 tubulin. The experiment in a line: Activity of tubulin protein (Western blotting). Conditions: LNCaP cells, knock-out (FIG. 4). The method, then:
NCI-H660 and LNCaP cell lines were seeded on 6-well plates at a density of 2×10^5 cells/well. After 24 hours, the cells were treated with CRISPR ERG, CRISPR TMPRSS2-ERG, and 30 μM casodex, respectively, for 48 hours. The cells were lysed using Pro-prep protein extraction solution (Intron Biotechnology, South Korea). Cell lysates were quantified using a BCA protein assay kit (Thermo Fisher Scientific, USA).
Then, the expression of proteins was identified by Western blotting. Specifically, SDS 5× loading buffer was added to protein samples diluted to 10-20 μg and heated for 5 minutes. The samples were placed in 4-20% Mini-protean TGX gel (Biorad, USA) and run at 120 V for 60 minutes. Then, the gel was transferred to a nitrocellulose membrane at 300 mA for 90 minutes. The membrane was blocked by 3% BSA in PBS and incubated overnight with a primary antibody in PBS containing 1% BSA at 4° C. The membrane was washed three times with PBS containing with 0.01% Tween 20. A secondary antibody was cultured in a PBS containing 1% BSA for 1 hour at room temperature. The membrane was washed three times with PBS containing 0.01% Tween 20. Then, the membrane was visualized with LAS-3000 (Fujifilm, Japan).
(In general: Immunoblotting shows a protein as a band on a membrane.)

In a further series the test system is caspase 3/7. The experiment in a line: Expression of caspase 3/7 (luminescence assay). The method, then:
NCI-H660 and LNCaP cells were seeded on black transparent bottom 96-well plates at a density of 10^4 cells/well. After 24 hours, the cells were treated with CRISPR ERG, crisprTMPRSS2-ERG, and 30 μM casodex, respectively, for 48 hours. 50 μL of a caspase 3/7 assay buffer (Promega, USA) was added thereto, followed by incubation at room temperature for 1 hour. Then, the activity of caspase 3/7 was detected by measuring luminescence.

The next series has as its system TMPRSS2-ERG gene. Description: Expression of TMPRSS2-ERG gene by RNA extraction, cDNA synthesis and PCR. The note with it: CRISPR treated in combination with 30 μM casodex, 48 hours (FIG. 2C). The protocol:
To identify whether the ERG gene of the cell line prepared in Example 2 was knocked out, expression of the gene was identified by extracting RNA and synthesizing cDNA.
NCI-H660 and LNCaP cell lines were seeded on 6-well plates at a density of 2×10^5 cells/well. After 24 hours, the cells were treated with CRISPR ERG, CRISPR TMPRSS2-ERG, and 30 μM casodex, respectively, for 48 hours. 1 mL of Trizol was added thereto to lyse the cells and the samples were homogenized by voltexing. 100 μL of chloroform was added thereto to separate RNA included in a transparent upper aqueous layer from proteins included in a lower organic layer. The solution was vigorously shaken and incubated at room temperature for 3 minutes. The resultant was centrifuged at 4° C. for 15 minutes at 13,000 rpm to obtain a clean aqueous layer including total RNA. Subsequently, the supernatant of the sample was transferred to a new tube and […] of isopropanol was added to each sample to precipitate RNA. The sample was incubated at room temperature for 10 minutes, and then centrifuged at 13,000 rpm at 4° C. for 15 minutes to obtain pellets of total RNA. Then, the supernatant was decanted and RNA was washed with 1 mL of 75% ethanol. […] RNA was resuspended in RNase-free water and absorbance of RNA was measured at 260 nm to determine a concentration of RNA. […]

The test system of a further series is NCI-H660 cells. Description: Cell viability, CellTiter 96 aqueous one solution cell proliferation assay. The protocol: (§1) NCI-H660 and LNCaP cells were seeded on transparent 96-well plates at a density of 10^4 cells/well. […] 10 μL of a CellTiter 96 aqueous one solution cell proliferation assay buffer (Promega, USA) was added thereto, followed by incubation at 37° C. for 1 hour. Then, cell viability was evaluated by measuring absorbance at […].
(§2) NCI-H660 and LNCaP cells were seeded on transparent 96-well plates at a density of 10^4 cells/well. After 24 hours, the cells were treated with CRISPR ERG, CRISPR TMPRSS2-ERG, and 30 μM casodex, respectively, for 48 hours. 10 μL of a CellTiter 96 aqueous one solution cell proliferation assay buffer (Promega, USA) was added thereto, followed by incubation at 37° C. for 1 hour. Then, cell viability was evaluated by measuring absorbance at […].

Another series relates to LNCaP cells. The description is as above. The protocol:
as §1, §2

The mark [2] stands for this setting: LNCaP cells, knock-out in combination with 30 μM casodex (FIG. 3C).
Where [3] appears, read: normal and resistant LNCaP cells, knock-out alone (FIG. 3C).

For “CRISPR TMPRSS2-ERG: CRISPR sgRNA for TMPRSS2-ERG, 5′AAGGCTTCCTGCCGCGCTCCAGG 3′, delivered with Cas9 nuclease to knock out TMPRSS2-ERG (listed as DNA, chemistry not given here; the letters are possibly those of the target site)”, the ATP level entry with pgp (setting [2]) is on record as “significantly increased”. The ATP level entry in the series on pgp (setting [3]) is recorded as “significantly increased”. In addition, in series [1], the “amount of polymeric alpha tubulin” value is given as “decreased”, the “amount of water-soluble alpha tubulin” value is reported as “increased” and the beta3 tubulin entry is listed as “no significant difference”. In addition, in the series on caspase 3/7 (cell line treated with CRISPR TMPRSS2-ERG alone, 48 hours (FIG. 2D)), the “expression of caspase 3/7” value was “significantly increased”.

On to “CRISPR ERG: CRISPR sgRNA for ERG, 5′TGCCTACGGAACGCCACACCTGG 3′, delivered with Cas9 nuclease to knock out ERG (listed as DNA, chemistry not given here; the letters are possibly those of the target site)”, for which the ATP level result in the series on pgp (setting [2]) is reported as “significantly increased”. Besides, in the series with pgp (setting [3]), the ATP level result is given as “significantly increased”. Besides, in series [1], the “amount of polymeric alpha tubulin” value is given as “decreased”, the “amount of water-soluble alpha tubulin” value is “increased” and the beta3 tubulin result is “no significant difference”.

Turning to `CC(O)(CS(=O)(=O)c1ccc(F)cc1)C(=O)Nc1ccc(C#N)c(C(F)(F)F)c1` (stereo not drawn) [casodex], the “expression level of TMPRSS2-ERG gene” value with TMPRSS2-ERG gene (LNCaP cell line) and with TMPRSS2-ERG gene (NCI-H660 cell line) was “significantly reduced” throughout. Moreover, the cell viability entry is on record as “significantly reduced” in the series with NCI-H660 cells (30 μM casodex in combination with CRISPR TMPRSS2-ERG, 48 hours, compared with CRISPR TMPRSS2-ERG alone (FIG. 2B)); “significantly reduced” in the series with NCI-H660 cells (casodex concentration in the range of 100 μM to 200 μM (FIG. 2B)); “significantly reduced” in the series with LNCaP cells (30 μM casodex in combination with CRISPR TMPRSS2-ERG, 48 hours, compared with CRISPR TMPRSS2-ERG alone (FIG. 2A)); “significantly reduced” in the series on LNCaP cells (casodex concentration in the range of 100 μM to 200 μM (FIG. 2A)). In addition, the “expression of caspase 3/7” value with caspase 3/7 (30 μM casodex in combination with CRISPR TMPRSS2-ERG, 48 hours, compared with CRISPR TMPRSS2-ERG alone (FIG. 2D)) is given as “more significantly increased”.
